Entries after “also recorded” stand apart in the source; their conditions may differ. Values belong to the compound of their own block, whether it stands above or below them.
Tests used:
480 kinases = assay: Eurofins KINOMEscan selectivity profile; assay type: binding; settings: Bentamapimod and Tanzisertib at 1 μM
CLK3 = biological target: T1, CLK3 (Homo sapiens, UniProt P49761); assay: ThermoFisher SelectScreen, CLK3; assay type: binding
T1 construct: purchased ThermoFisher (SelectScreen, outsourced service)

[1] = Pharmacokinetics after oral administration in mice; assay type: in vivo; settings: mouse, 50 mg/kg, plasma
Text: Based on stability and estimated half-life of compounds exposed to liver microsome in vitro, CDD-2728 was selected for PK evaluation.

[2] = system: 12Z endometriotic epithelial cells; assay: IL-1β-stimulated pro-inflammatory gene expression (qPCR) in 12Z cells; assay type: cell-based, human; settings: relative to bentamapimod
Text: These studies indicate that NanoBRET assays are an innovative technical platform to measure target engagement of CDD JNK inhibitors with the target JNK1, JNK2 or JNK3. As further evidence that JNK inhibitors address disease-relevant endpoints, biological responses of JNK inhibitors are provided herein, as measured in target tissue cellular models. 12Z immortalized endometriotic epithelial cells and patient-derived endometriotic stromal cells have been cultured with reference compound bentamapimod, CDD-2628, and CDD-2728. To exemplify the effects of CDD-2628 and CDD-2728 in the endometrial cell cultures, gene expression was measured using qPCR (expressed as fold-change relative to GAPDH, a housekeeping gene that is not affected by culture treatment effects) that reflect synthesis of inflammatory lipids (PTGS2), transformation of cells to a more migration and invasive potential (MMP-3) and chemoattractant cytokines to recruit pro-inflammatory immune cells (IL-6, IL-8).
In the culture systems employed in FIGS. 12A-12J, FIGS. 13A-13B, FIGS. 14A-14H, FIGS. 15A-15H, and FIGS. 16A-16F, the treatment of cells with IL-1β is used to mimic the peritoneal environment where IL-1β is most frequently measured at higher concentrations in patients with endometriosis (0.1 ng/mL-1 ng/mL) than in unaffected women (<0.01 ng/mL). The use of IL-1β to mimic the pro-inflammatory environment is a common method in cellular assays for endometriosis research. Although the concentrations of IL-1β in these cell cultures are higher than measured in peritoneal fluid, there are multiple other pro-inflammatory cytokines in peritoneal fluid that contribute to the pro-inflammatory environment.
Specifically, 12Z cells were plated at a density of 1×10^5 cells/well in a 12-well tissue culture plate, serum-starved overnight (17-18 h), pre-treated with vehicle (DMSO) or JNK inhibitor for 30 minutes, then stimulated with 10 ng/ml IL-1β in the presence or absence of the JNK inhibitors for 6 hours. After the 6-hour treatment, mRNA was extracted from the cells using the Qiagen RNEasy mini isolation kit and […] of mRNA was reverse transcribed into cDNA using the qScript cDNA Supermix (Quanta Biosciences). cDNA was amplified using SYBR Green Master Mix (Applied Biosystems) with quantitative Real Time PCR (BioRad CFX) using pre-designed and validated primers specific for genes encoding IL6, IL8, PTGS2/COX2, and MMP3 (BioRad). Relative quantification of these specific genes was calculated by the ΔΔCt method, normalizing their abundance relative to the internal housekeeping gene, GAPDH, followed by quantification relative to the vehicle-treated cells. Statistical analyses and visualizations were performed using a One Way ANOVA with a Tukey's multiple comparison post-hoc test on GraphPad Prism version 9.

[3] = system: human endometriotic stromal cells (patient 143); assay: IL-1β-stimulated pro-inflammatory gene expression in primary endometriotic stromal cells, patient 143; assay type: cell-based; settings: patient 143, relative to CDD-939
Text: Similar to patient “50”, lower concentrations of CDD-2728 were required to reduce the proinflammatory response of IL-1β in stromal cells on these measured genes than in 12Z epithelial cells.
To confirm and further support the results described herein, endometriotic stromal cell cultures were established from a second patient. For compliance purposes, this set of cell culture results are identified as Eosis143. These are stromal cells obtained from the lining of an ovarian endometrioma cyst wall.

pSer63 and pSer73 Jun = assay: In-cell Western blot of Jun phosphorylation; assay type: cell-based; settings: 0.1, 1 and 10 μM
Protocol: The top section of the in-cell Western is pSer73 and the lower section is pSer63. Experiments were performed in triplicate for 3 concentrations (0.1 μM, 1 μM, and 10 μM) FIGS. 27B-27C: graphical summary of the in-cell Western blot is provided for pSer73 (FIG. 27B) and pSer63 (FIG. 27C).

iHEEC [4] = assay: Cell morphology, phospho-JNK and vimentin staining in iHEEC; assay type: cell-based, human
Text: FIGS. 28A-28C depict the impact of JNK inhibition on the cellular morphology and expression of surface marker, vimentin in iHEEC. […] Phospho-JNK staining in iHEEC can be either punctate staining in intracellular organelles or disperse staining through the cytoplasmic space of cells.

iHEEC [5] = assay: Beta-catenin expression in IL-1β-treated iHEEC; assay type: cell-based, human; parameters: beta-catenin expression at cell contact points: dose or concentration left out as unconfirmed
Protocol: FIGS. 29A-29C depict the impact of JNK inhibition on the cellular expression of beta-catenin located at the cell surface and throughout the cytoplasm of iHEEC, wherein HEEC cells were treated with vehicle (FIG. 29A), IL-1β (FIG. 29B), or IL-1β and […] CDD-2728 (FIG. 29C). The increased cytoplasmic and plasma membrane expression of β-catenin following exposure to IL-1β supports the role of β-catenin in facilitating epithelial-to-mesenchymal transdifferentiation. The cellular morphology is consistent with that of columnar epithelial cells. iHEEC were treated with JNK-I or vehicle for 30 min before addition of IL-1β, followed by incubation of cells for another 15 minutes. Addition of IL-1β over this short time course caused a dramatic change in the expression of beta-catenin in iHEEC endometriotic epithelial cells, and a noticeable change in phospho-JNK throughout the cytoplasm, induced by IL-1β. Beta catenin expression at contact points between cells is increased by IL-1β, and inhibited by CDD-2728.

12Z cells = assay: Phosphorylation of Jun and JNK in IL-1β-treated 12Z cells; assay type: cell-based, human
HepG2 cells = assay: HepG2 cell viability (ATP consumption); settings: CDD-2575 25 μM; CDD-2728, CDD-2624 up to 75
Protocol: This assay reflects cell viability. […] To determine if the responses observed in endometriotic epithelial cells and endometriotic stromal cell cultures were cytotoxic, cell viability was performed in HepG2 cells.

T1 sequence (P49761 whole entry): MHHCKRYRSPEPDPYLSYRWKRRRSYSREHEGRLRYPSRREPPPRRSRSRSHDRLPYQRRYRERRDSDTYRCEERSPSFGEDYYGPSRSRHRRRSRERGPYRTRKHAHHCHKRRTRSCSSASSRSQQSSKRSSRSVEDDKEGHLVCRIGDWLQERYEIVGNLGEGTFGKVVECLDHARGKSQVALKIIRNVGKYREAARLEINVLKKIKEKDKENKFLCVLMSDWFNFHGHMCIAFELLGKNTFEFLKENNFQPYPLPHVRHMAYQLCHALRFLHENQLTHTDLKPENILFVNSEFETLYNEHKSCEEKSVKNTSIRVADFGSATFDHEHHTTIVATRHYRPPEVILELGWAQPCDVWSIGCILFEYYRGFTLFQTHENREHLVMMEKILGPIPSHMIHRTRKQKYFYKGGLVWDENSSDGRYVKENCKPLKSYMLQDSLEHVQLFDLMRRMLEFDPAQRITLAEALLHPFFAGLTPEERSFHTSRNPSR

Compound: CNCc1ccc(NC(=O)c2ccn3ncc(-c4cnc5[nH]ccc5c4)c3c2)cc1 [CDD-2346, N-(4-((methylamino)methyl)phenyl)-3-(1H-pyrrolo[2,3-b]pyridin-5-yl)pyrazolo[1,5-a]pyridine-5-carboxamide]
KINOMEscan selectivity / inhibition (480 kinases): selectivity of CDD-2346 was inadequate

Kd (CLK3): 1020 nM
AUC(0-inf) [1]: 3.03 ± 0.98 µM·h
AUC(0-t) [1]: 2.95 ± 0.95 µM·h
CL/F [1]: 650 mL/min/kg
Cmax [1]: 1510 ± 530 nM
Tmax [1]: 37.8 ± 15 min
half-life [1]: 88.8 ± 19.2 min
MRT last ([1]; read-out: MRT0-t): 1.7 ± 0.34 h
MRT inf ([1]; read-out: MRT0-∞): 1.91 ± 0.44 h
Compound: CN(C)C(=O)c1cc(NC(=O)c2cc3c(-c4cnc5[nH]ccc5c4)cccc3s2)ccc1O [CDD-2728, N-(3-(dimethylcarbamoyl)-4-hydroxyphenyl)-4-(1H-pyrrolo[2,3-b]pyridin-5-yl)benzo[b]thiophene-2-carboxamide]
IL-6 expression [2]: equally effective
IL-8 expression [2]: more potent inhibitors of IL-8 expression than bentamapimod; also recorded: effectively suppressed IL-8 production
MMP-3 expression [2]: more potent than CDD-939 at inhibiting MMP-3 expression; also recorded: more effective than bentamapimod
PTGS2 expression [2]: more effective than bentamapimod
inhibition of IL-6, IL-8, MMP-3 and PTGS2 gene expression [3]: at lower doses than was required for inhibition of expression of these genes by CDD-939; also recorded: superior to bentamapimod in efficacy of suppression and potency
Jun phosphorylation (pSer73, pSer63), relative to Tanzisertib (pSer63 and pSer73 Jun): more effective inhibitors of Jun phosphorylation than Tanzisertib
phospho-JNK staining (iHEEC [4]): reduce the intensity of phospho-JNK staining
vimentin staining (iHEEC [4]): not a dramatic change in the vimentin staining
cell viability or cell density (iHEEC [5]; short time course, iHEEC): no apparent changes in cell viability or cell density
beta-catenin expression at cell contact points (iHEEC [5]; with IL-1β): inhibited
phosphorylation of JNK1 or JNK2 (12Z cells): undetectable changes
phosphorylation of Jun relative to total Jun (12Z cells; relative to bentamapimod): superior efficacy
effect on HepG2 cell viability / ATP consumption (HepG2 cells): tolerated (up to 75 μM); also recorded: neither CDD-2624 or CDD-2728 had significant effects on ATP consumption

From patent publication US20260294922A1, “Inhibitors of JUN N-Terminal Kinases (JNK1, JNK2, and/or JNK3) and Mitogen-Activated Protein Kinases (MAPK8, MAPK9, and/or MAPK10) and Methods of Using Same” (Baylor College of Medicine, priority 2023, published 2026)
